Experimental data from patent US20240041813A1, “VERY-LONG-CHAIN POLYUNSATURATED FATTY ACIDS, ELOVANOID HYDROXYLATED DERIVATIVES, AND METHODS OF USE” (priority 2020, published 2024).
“Also recorded” adds a separate entry of the source.

How the values were obtained:
ACE-2 receptor = assay: ACE-2 protein abundance by Jess capillary western in human alveoli in culture; format: cell-based; details: effect dependent on addition of IL-1b
From the text: The Simple Protein platform Jess allows running a protein mixture in a capillary system that also serves as a probing matrix for the antibodies. This platform obviates the need to transfer the size-separated proteins onto a membrane with the consequent loss of sample. The sample amount that can be run in Jess is several times smaller than that required for Western blots. Therefore, high throughput is facilitated in cell cultures. The antibodies to this protein have been validated in our laboratory.
c.1.b. Protein abundance using Jess technology. The Simple Protein platform Jess allows running a protein mixture in a capillary electrophoretic system as a probing matrix for the antibodies (we refer to western blot as “Jess WB” here). This platform obviates the need to transfer the size-separated proteins onto a membrane with a potential loss of sample. The sample size run in Jess is several times smaller than that for classical WB. (400 ng protein/capillary column vs. 10 or more μg for classical WB). The proteins we assess will include ACE2, Furin, ADAM17, DPP4, TMPRSS2, protein surfactant D, and Cathepsin L. In addition, senescence and SASP proteins will also be analyzed. […]
ACE2 Protein abundance using Jess technology. […] Soluble protein concentration was determined by BCA assay (Thermo Fisher Scientific, Cat. 23225) and 0.4 μg used/reaction. […]

[1] = test system: receptor-binding domain (RBD) of the SARS-CoV-2 spike; format: cell-based, human
Cdkn2a (p16INK4a) = assay: HCEC challenged with IFNγ: Cdkn2a gene expression; format: cell-based, human; details: IFNγ 100 ng/ml
From the text: (§1) All experiments with human corneal epithelial cells were approved by the Institutional Review Board of LSUHNO and conducted in accordance with NIH guidelines. HCEC were kept frozen in the laboratory at passage 2544. Cells were maintained in keratinocyte growth (KGM) medium containing the keratinocyte basal medium (KBM) (Lonza: CC-3101) supplemented with bovine pituitary extract (BPE), hEGF, Insulin, Hydrocortisone and Gentamicin Sulfate-Amphotericin (GA-1000) (Lonza, Cat. CC-4131). For all experiments, cells were seeded at 30,000 cells/cm2.
(§2) For screening the stimulation of receptor ACE2 by cytokines, the HCEC were cultured with KGM until 50-60% confluence. Then, changed to KBM containing IL-1β, -2, -6 and 8, IFN-α, -ε, and -γ or TNFα at 1, 10 or 100 ng/ml. The cells were harvested after 6 hours and analyze for the gene expression of Ace2. In other experiments, HCEC were stimulated with IFNγ, and thereafter, lipid mediators were added. For the Alexa 594-conjugated RBD binding, IFNγ was used as a cytokine trigger. At 12 hours after cytokine exposure and lipid mediator treatments, […] of labeled RBD was added to the medium. The evaluation of RBD binding was conducted 24 hours after.
Quantitative PCR was performed with the Biomark HD system (Fluidigm, San Francisco, CA, USA). Briefly, 200 ng of RNA was reverse-transcribed using iScript Reverse Transcription Supermix (Bio-Rad), and the cDNA was pre-amplified using the PreAmp Master Mix (PN 100-5580; Fluidigm). The cDNA was then subjected to Exonuclease I treatment and diluted 5 times in TE Buffer. The qPCR reaction mixture and primer reaction mixture were made and loaded into the Biomark 96.96 IFC™ (Integrated Fluidic Circuit). The enzyme reaction was mixed using Juno™ Controller (Fluidigm) and run using the cycling program of (i) 70° C. for 40 minutes followed by 60° C. for 30 seconds, (ii) hot start for 1 minute at 95° C., (iii) 30 cycles of denaturation at 96° C. for 5 seconds, and annealing at 60° C. for 20 seconds, and (iv) melting curves between 60° C. and 95° C. with 1° C. increments/3 seconds. The Ct value of target genes was normalized to the house-keeping genes Gapdh, Hprt1, and Tfrc before normalized to the vehicle group. Relative fold changes from the ΔΔCT calculation was used to make the graph.

Alexa 594-RBD [2] = format: in vivo; details: rat cornea after alkali burn; 14 days treatment; Alexa 594-RBD 1 μg/eye, 3 times at day 15, examined a day later
ACE2 [3] = assay: Rat cornea alkali burn: corneal RNA-seq, Ace2 gene expression; format: in vivo; details: rat cornea after alkali burn; eye drops 3 times/day for 14 days; RNA-seq day 14
Method: (§3) The rats were anesthetized by intraperitoneal injection of Ketamine (50-100 mg/kg) plus xylazine (5-10 mg/kg). A 4 mm diameter filter paper soaked in 1 N NaOH was placed on the central cornea of the right eye for 45 seconds, and then the eye was thoroughly washed with […] of saline. After injury, the rats were randomly divided into five treatment groups: vehicle; lipoxin A4 (LXA4) from Cayman Chemical (Ann Arbor, MI, USA); R,R Resolvin D6 isomer (RvD6i), R,R neuroprotection D (NPD1), and elovanoid (ELV)-N32. All lipid solutions were prepared at the final concentration of […] using PBS with the minimal contamination of ethanol by evaporating the ethanol and immediately dissolve the lipids in PBS, then vortex well for 2 min. Topical administration (20 μl) was done 3×/day for 14 days. The experiments were double-blinded with the lipid mediators coded during the whole experiments. At the end of the study, when all data was collected, the code was opened.
(§4) Injured corneas (n=5/condition) were harvested and homogenized with TRIzol (Thermo Fisher Scientific) on ice with a glass Dounce homogenizer. RNA sequencing was performed as described^14. Briefly, after mRNA extraction and determination of purity, 8 ng of total RNA was reverse transcribed, and total cDNAs were amplified using ISPCR primer, and the library was made with the Nextera XT DNA library preparation kit (Illumina, San Diego, CA, USA). The libraries were pooled with the same molarity and sequenced using the NextSeq 500/550 High Output Kit v2 (75 cycles, Illumina). After demultiplexing, RNA-seq data were aligned to the Rattus Norvegicus reference genome (.ensembl.org/pub/release-98/fasta/rattus_norvegicus/dna/) using the Subread package v2.0.1 alignment function39. The BAM files for sequencing data alignment were counted using featureCounts function of Subread tool^40 using the macOS Catalina. The raw count data were subjected to differential gene expression analysis using DESeq2 package for R^41 with the vehicle group as reference. The adjusted p-values were named as the false discover rate (FDR).

injured rat cornea = assay: Rat cornea alkali burn: corneal RNA-seq, cytokine storm, NFkB/inflammation, senescence, integrin and protease genes; format: in vivo; details: rat cornea, RNA-seq 14 days after injury
Method: as §3, §4

ACE2 [4] = assay: Rat cornea alkali burn: ACE2 abundance by Jess capillary-based Western Blot; format: in vivo; details: rat cornea after alkali burn; eye drops 20 μl/eye, 3 times/day for 14 days; day 14
From the text: Sprague-Dawley rats (8-week-old male) were obtained from Charles River Laboratories (Wilmington, MA, USA) and kept at the Animal Care of the Neuroscience Center of Excellence, Louisiana State University Health (LSUH; New Orleans, LA, USA). All animals were handled in compliance with the guidelines of the ARVO Statement for the Use of Animals in Ophthalmic and Vision Research, and the experimental protocol was approved by the Institutional Animal Care and Use Committee (IACUC) at LSUH.
as §3
Briefly, samples were lysed with RIPA buffer containing a protease inhibitor cocktail (Sigma, Cat. P8340). Cell debris was removed after 10 min centrifugation at 16,000×g. Protein concentration was determined by BCA assay (Thermo Fisher Scientific, Cat. 23225) and 1 μg used/reaction. Fluorescent Master Mix was mixed with 40 mM DTT, and the mixture was added to each sample to provide a denaturing and reducing environment. Samples were heated at 95° C./5 min, and 3 μL of each sample were loaded. The 12-230 kDa cartridge (Protein Simple—#SM-W004) was used. Primary antibodies were diluted in antibody diluent 2 buffer (Protein Simple, #042-203) while the working solution of secondary antibodies was provided by the company (Protein Simple, #042-206). Then, the filled plate was spin-down for 10 min at 1,000×g to remove bubbles and plate, and capillaries were loaded into the Jess machine. For data analysis, the area of spectra that matched the molecular weight of the target protein was used. To reduce the coefficient variant, we analyzed the GAPDH for each capillary. The ratio of the targeted protein to GAPDH was used for statistical comparisons. For visualization, the artificial lanes generated from spectra volume was used.

Alexa 594-RBD [5] = assay: HCEC challenged with IFNγ: Alexa 594-RBD binding (unbiased imaging, Imaris); format: cell-based, human; details: IFNγ 100 ng/ml and lipid mediators 200 nM for 12 h, images 24 h after RBD
Method: as §2
Twenty-four hours after Alexa 594-RBD was added to the HCEC, the cells were washed with PBS (3×/5 min) and fixed with 4% paraformaldehyde for 30 minutes at RT. The HCEC were washed 2× with PBS and stained with Hoechst 33342 Solution (ThermoFisher Scientific, Cat. 62249) for 30 minutes at RT. Next, the HCEC were washed 2× with PBS before imaging. For unbiased data collection, 7 designated areas were defined in each well (FIG. 63) and captured with an Olympus FV3000 confocal laser scanning microscopy under “Multi Area Time Lapse” (MATL) mode. All images were acquired with the same parameters and Z-section range, converted and inputted in the Imaris software version 9.5.1. The threshold for the control images was defined by the HCEC without Alexa 594-conjugated RBD of S protein and using it as a threshold filter for the Imaris batch image processing function. The sum of total intensity for each image was used to evaluate the binding efficiency.

[6] = test system: human corneal epithelial cells (HCEC); assay: HCEC challenged with IFNγ: SASP secretome (β-Gal staining); format: cell-based; details: HCEC 24 h after IFN-γ challenge
ACE2 [7] = assay: HCEC challenged with IFNγ: Ace2 gene expression; format: cell-based, human; details: IFNγ 100 ng/ml
From the text: as §1, §2
Quantitative PCR was performed with the Biomark HD system (Fluidigm, San Francisco, CA, USA). […]

Structure (SMILES) | expression of the ACE-2 receptor (protein abundance, Jess) (ACE-2 receptor) | RBD protein internalization (RBD located below the membrane line) [1] | Cdkn2a activation (Cdkn2a (p16INK4a)) | binding of Alexa 594-RBD to injured cornea (Alexa 594-RBD [2]) | Ace2 gene expression levels (ACE2 [3]) | 51 injury-upregulated genes (cytokines, SASP, NFkB inflammatory) (injured rat cornea) | Il6 and Vegfa expression (injured rat cornea) | integrin gene expression (Itga5 and Itgb 1) (injured rat cornea) | transcriptomic profile in PCA plot relative to control cornea (injured rat cornea) | ACE2 abundance (protein, normalized to GAPDH) (ACE2 [4]) | IFNγ-stimulated Alexa 594-RBD binding (Alexa 594-RBD [5]) | senescence programming genes and SASP secretome activation (β-Gal) [6] | IFNγ-triggered Ace2 activation (ACE2 [7])
CC/C=C\CC(O)\C=C/C=C/C=C/C(O)C/C=C\C/C=C\CCCCCCCCCCCCCCC(=O)O [ELV-N34, (16Z,19Z,22R,23E,25E,27Z,29S,31Z)-22,29-dihydroxytetra-triaconta-16,19,23,25,27,31-hexaenoic acid] | downregulate | decrease | – | – | – | – | – | – | – | – | – | – | –
CC/C=C\C[C@@H](O)/C=C/C=C\C/C=C\C/C=C\C=C\[C@H](O)CCC(=O)O [RvD6i] | – | – | decrease | decrease; also recorded: counteracted | decrease | most are inhibited | reduced | significantly decreased; also recorded: decrease | nearest to the normal cornea | decrease | attenuated | blocked; also recorded: suppressed | markedly attenuated; also recorded: suppressed
